Where “and” joins values, the source holds several entries; their conditions need not be identical. Equal entries are not always repeated.

Experiment [1] has as its system Vibrio vulnificus. The experiment can be described thus: Coloring reaction test of chromogenic reagents, 96 well plate. The experiment is classed as biochemical. The following applies: chromogenic reagent terminal concentration 10 mM, 30 minutes at 37° C.
For experiment [2], the system named is Staphylococcus aureus. The experiment is described as above. The experiment is classed as biochemical. The following applies: chromogenic reagent terminal concentration 10 mM, 30 minutes at 37° C.
Experiment [3] relates to Salmonella spp. The description is as above. It is filed as biochemical. The following applies: chromogenic reagent terminal concentration 10 mM, 30 minutes at 37° C.
A further experiment has as its system Listeria monocytogenes. The experiment can be described thus: Bacterial lysis efficacy by measuring optical density (OD). The experiment is classed as cell-based. The settings on record: initial O.D = 0.8336.
In the next experiment the test system is Esherichia coli O157. The description is as above. The following applies: initial O.D = 0.8139. It is filed as cell-based, Escherichia coli O157.
The test system of experiment [4] is Staphylococcus aureus. Described as above. The settings on record: initial O.D = 1.1877. The experiment is classed as cell-based.
Experiment [5] has as its system Salmonella spp. The experiment is described as above. The settings on record: initial O.D = 1.4448.
The test system of experiment [6] is Vibrio vulnificus. The description is as above. The following applies: initial O.D = 0.6143.

As for “5-Bromo-6-chloro-3-indolyl-beta-D-glucopyranoside [Magenta-beta-glucopyranoside]”, in the experiment on Vibrio vulnificus [1], the coloring reaction result is “unique coloring reaction”.

For the compound `O=P([O-])([O-])Oc1c[nH]c2ccc(Br)c(Cl)c12.[Na+].[Na+]` [X-phosphate, 5-Bromo-4-chloro-3-indoxyl phosphate, disodium salt], the coloring reaction result was “unique coloring reaction” in the experiment on Staphylococcus aureus [2]; “unique and strong coloring reaction” in the experiment on Salmonella spp. [3].

Consider Triton X-100, for which the Optical density in the experiment on Listeria monocytogenes (detergent 0.1%) was 0.7013 and 0.7077 and 0.7059; with Listeria monocytogenes (detergent 0.5%), 0.7398 and 0.7403 and 0.7414; with Listeria monocytogenes (detergent 1%), 0.6622 and 0.6765 and 0.6766; with Listeria monocytogenes (detergent 2%), 0.7014 and 0.7164 and 0.7099; with Listeria monocytogenes (detergent 3%), 0.6407 and 0.6609 and 0.6608; with Listeria monocytogenes (detergent 5%), 0.6213 and 0.6340 and 0.6310. Moreover, the Optical density was 0.8888 and 0.8930 and 0.8848 in the experiment on Esherichia coli O157 (detergent 0.1%); 0.9722 and 0.9715 and 0.9720 in the experiment on Esherichia coli O157 (detergent 1%); 0.9793 and 0.9819 and 0.9767 in the experiment on Esherichia coli O157 (detergent 2%); 0.9052 and 0.9049 and 0.9035 in the experiment on Esherichia coli O157 (detergent 3%); 0.9238 and 0.9183 and 0.9254 with Esherichia coli O157 (detergent 5%); 1.1248 and 1.1255 and 1.1291 in the experiment on Staphylococcus aureus [4] (detergent 0.1%). Further, the Optical density was 1.2024 and 1.2028 and 1.2027 in the experiment with Staphylococcus aureus [4] (detergent 1%); 1.2247 and 1.2245 and 1.2231 with Staphylococcus aureus [4] (detergent 2%); 1.1855 and 1.1810 and 1.1826 with Staphylococcus aureus [4] (detergent 3%); 1.2147 and 1.2108 and 1.2034 in the experiment on Staphylococcus aureus [4] (detergent 5%); 1.0968 and 1.0927 and 1.0890 in the experiment with Salmonella spp. [5] (detergent 0.1%); 1.0965 and 1.0899 and 1.1089 in the experiment on Salmonella spp. [5] (detergent 0.5%). For the same compound, the Optical density was 0.8827 and 0.8879 and 0.8963 in the experiment with Salmonella spp. [5] (detergent 1%); 0.9457 and 0.9452 and 0.9464 in the experiment with Salmonella spp. [5] (detergent 2%); 0.8287 and 0.8303 and 0.8231 in the experiment on Salmonella spp. [5] (detergent 3%); 0.8258 and 0.8240 and 0.8249 with Salmonella spp. [5] (detergent 5%); 0.3916 and 0.3935 and 0.3923 with Vibrio vulnificus [6] (detergent 0.1%); 0.3421 and 0.3417 and 0.3437 with Vibrio vulnificus [6] (detergent 0.5%). Also, the Optical density in the experiment with Vibrio vulnificus [6] (detergent 1%) is 0.2844 and 0.2794 and 0.2801; with Vibrio vulnificus [6] (detergent 2%), 0.3044 and 0.3089 and 0.3046; with Vibrio vulnificus [6] (detergent 3%), 0.2947 and 0.2950 and 0.2966; in the experiment with Vibrio vulnificus [6] (detergent 5%) it was 0.2499 and 0.2478 and 0.2431.

On to “5-bromo-4-chloro-3-indoxyl-alpha-D-glucopyranoside [X-alpha-glucospyranoside]”, for which the coloring reaction entry with Vibrio vulnificus [1] is given as “unique coloring reaction”.

For `CCCCCCCC(=O)Oc1c[nH]c2cc(Cl)c(Br)cc12` [Magenta-caprylate, 5-Bromo-6-chloro-3-indoxyl caprylate], the coloring reaction result in the experiment with Staphylococcus aureus [2] was “showed coloring reaction”; in the experiment with Salmonella spp. [3] it was “higher intensity and speed”.

For the compound `OC[C@H]1O[C@H](Oc2c[nH]c3cc(Cl)ccc23)[C@H](O)[C@@H](O)[C@@H]1O` [Salmon-alpha-glucospyranoside, 6-Chloro-3-indoxyl-alpha-D-glucopyranoside], the coloring reaction result in the experiment on Staphylococcus aureus [2] is “unique coloring reaction”; in the experiment on Salmonella spp. [3], “unique and strong coloring reaction”; with Vibrio vulnificus [1], “unique coloring reaction”.

Turning to `CCCCCCCCCCCCCCCC[N+](C)(C)CCCS(=O)(=O)[O-]` [SB3-16, 3-(Hexadecyldimethylammonio)propane-1-sulfonate], the Optical density was 0.7770 and 0.8027 and 0.8073 in the experiment with Listeria monocytogenes (detergent 0.1%); 0.7764 and 0.7530 and 0.7657 in the experiment on Listeria monocytogenes (detergent 0.5%); 0.8133 and 0.8142 and 0.8238 in the experiment on Listeria monocytogenes (detergent 1%); 0.7546 and 0.7725 and 0.7891 in the experiment on Listeria monocytogenes (detergent 2%); 0.7213 and 0.7797 and 0.7969 in the experiment with Listeria monocytogenes (detergent 3%); 0.6344 and 0.6340 and 0.6042 in the experiment with Listeria monocytogenes (detergent 5%). Moreover, the Optical density with Esherichia coli O157 (detergent 0.1%) was 0.9950 and 1.0011 and 0.9956; in the experiment with Esherichia coli O157 (detergent 0.5%), 1.0314 and 1.0172 and 1.0085; in the experiment on Esherichia coli O157 (detergent 1%), 0.8049 and 0.7896 and 0.7856; in the experiment with Esherichia coli O157 (detergent 2%) it was 0.8432 and 0.8338 and 0.8284; in the experiment on Esherichia coli O157 (detergent 3%), 0.8710 and 0.8653 and 0.8610; in the experiment on Esherichia coli O157 (detergent 5%), 0.9536 and 0.9258 and 0.9244. The Optical density with Staphylococcus aureus [4] (detergent 0.1%) is 1.0492 and 1.0472 and 1.0449; in the experiment on Staphylococcus aureus [4] (detergent 1%) it was 1.1763 and 1.1734 and 1.1719; with Staphylococcus aureus [4] (detergent 2%) it was 1.0764 and 1.0741 and 1.0744; in the experiment with Staphylococcus aureus [4] (detergent 3%), 1.0675 and 1.0649 and 1.0654; in the experiment on Staphylococcus aureus [4] (detergent 5%), 1.0721 and 1.0700 and 1.0711; with Salmonella spp. [5] (detergent 0.1%), 0.6487 and 0.6399 and 0.6538. For the same compound, the Optical density was 0.7598 and 0.7515 and 0.7651 with Salmonella spp. [5] (detergent 0.5%); 0.4932 and 0.4918 and 0.4892 in the experiment with Salmonella spp. [5] (detergent 1%); 0.4688 and 0.4680 and 0.4676 in the experiment on Salmonella spp. [5] (detergent 2%); 0.4487 and 0.4508 and 0.4516 with Salmonella spp. [5] (detergent 3%); 0.4594 and 0.4580 and 0.4632 in the experiment with Salmonella spp. [5] (detergent 5%); 0.1196 and 0.1210 and 0.1170 in the experiment on Vibrio vulnificus [6] (detergent 0.1%). Further, the Optical density is 0.0680 and 0.0627 and 0.0656 with Vibrio vulnificus [6] (detergent 0.5%); 0.0553 and 0.0506 and 0.0521 with Vibrio vulnificus [6] (detergent 1%); 0.0399 and 0.0421 and 0.0383 with Vibrio vulnificus [6] (detergent 2%); 0.0395 and 0.0407 and 0.0453 in the experiment with Vibrio vulnificus [6] (detergent 3%); 0.0324 and 0.0317 and 0.0323 in the experiment on Vibrio vulnificus [6] (detergent 5%).

For `CCCCCCCCCCCC[N+](C)(C)CCCS(=O)(=O)[O-]` [SB3-10, 3-(Dodecyldimethylammonio)propane-1-sulfonate], the Optical density in the experiment with Listeria monocytogenes (detergent 0.1%) was 0.7689 and 0.8003 and 0.7683; in the experiment on Listeria monocytogenes (detergent 0.5%), 0.7694 and 0.7802 and 0.7866; with Listeria monocytogenes (detergent 1%), 0.7935 and 0.7994 and 0.8055; in the experiment with Listeria monocytogenes (detergent 2%) it was 0.7242 and 0.7341 and 0.7357; in the experiment on Listeria monocytogenes (detergent 3%) it was 0.6917 and 0.7252 and 0.7227; in the experiment on Listeria monocytogenes (detergent 5%) it was 0.8414 and 0.8448 and 0.8431. Also, the Optical density in the experiment with Esherichia coli O157 (detergent 0.1%) was 0.5979 and 0.5907 and 0.5816; with Esherichia coli O157 (detergent 0.5%), 0.6803 and 0.6818 and 0.6832; in the experiment with Esherichia coli O157 (detergent 1%) it was 0.5228 and 0.5223 and 0.5253; in the experiment on Esherichia coli O157 (detergent 2%) it was 0.5845 and 0.5861 and 0.5779; in the experiment with Esherichia coli O157 (detergent 3%) it was 0.6355 and 0.6371 and 0.6311; with Esherichia coli O157 (detergent 5%) it was 0.8160 and 0.8061 and 0.8134. Besides, the Optical density in the experiment on Staphylococcus aureus [4] (detergent 0.1%) is 0.9335 and 0.9313 and 0.9293; in the experiment with Staphylococcus aureus [4] (detergent 0.5%), 0.9517 and 0.9486 and 0.9454; in the experiment on Staphylococcus aureus [4] (detergent 1%), 0.8872 and 0.8856 and 0.8847; in the experiment on Staphylococcus aureus [4] (detergent 2%), 0.8495 and 0.8478 and 0.8480; in the experiment with Staphylococcus aureus [4] (detergent 3%) it was 0.5582 and 0.5458 and 0.5385; with Staphylococcus aureus [4] (detergent 5%), 0.8456 and 0.8446 and 0.8442. The Optical density in the experiment on Salmonella spp. [5] (detergent 0.1%) is 0.9125 and 0.9111 and 0.9138; in the experiment with Salmonella spp. [5] (detergent 0.5%), 0.4241 and 0.4359; in the experiment with Salmonella spp. [5] (detergent 1%), 0.4611 and 0.4597 and 0.4705; in the experiment with Salmonella spp. [5] (detergent 2%), 0.4310 and 0.4345; in the experiment on Salmonella spp. [5] (detergent 3%), 0.4184 and 0.4186 and 0.4199; with Salmonella spp. [5] (detergent 5%), 0.9464 and 0.9488 and 0.9479. The Optical density with Vibrio vulnificus [6] (detergent 0.1%) is 0.3351 and 0.3199 and 0.3176; with Vibrio vulnificus [6] (detergent 0.5%) it was 0.2124 and 0.2149 and 0.2105; in the experiment with Vibrio vulnificus [6] (detergent 1%), 0.1822 and 0.1758 and 0.1891; with Vibrio vulnificus [6] (detergent 2%), 0.1627 and 0.1647 and 0.1624; with Vibrio vulnificus [6] (detergent 3%), 0.0869 and 0.0865 and 0.0893; with Vibrio vulnificus [6] (detergent 5%), 0.1477 and 0.1578 and 0.1677.
